The source of these data is US6852735B1, “Siastatin B derivatives having a glycosidase inhibitory activity and processes for producing the same” (Zaidan Hojin Biseibutsu Kagaku Kenkyu Kai, priority 1998, dated 2005).

The subject of this assay is α-D-galactosidase (from Aspergillus niger). Briefly: α-galactosidase inhibition (Test Example 3). It counts as biochemical. As to conditions: for 50% inhibiory concentration (IC50) Enzyme C: α-D-galactosidase from Aspergillus niger, substrate p-nitrophenyl-α-D-galactoside. The protocol:
Thus, 0.5 mL of 0.025M citrate-phosphate buffer (pH 4.0), 0.1 mL of the same buffer containing 10 mM p-nitro-phenyl-N-acetyl-α-D-galactosaminide dissolved therein, and 0.1 mL of either water or an aqueous solution containing as the test compound any one of the compounds of the formulae (I), (V) and (X) according to this invention were mixed with each other and pre-incubated in a 96-wells titer plate at 37° C. for 10 minutes. After the completion of the pre-incubation, to the pre-incubated mixture was added 0.01 mL of 0.025 M citrate-phosphate buffer containing α-N-acetyl-galactosaminidase originated from chicken liver (a product of Sigma Company) which was dissolved in said buffer as a glycosidase to be tested. Thereafter, the enzymatic reaction was conducted at 37° C. for 30 minutes.
After the enzymatic reaction, to the reaction solution was added 1.0 mL of 0.3M glycine—sodium hydroxide buffer (pH 10.5), in order to terminate the enzymatic reaction. Thereafter, the absorbance [designated as value (a)] of light at 405 nm of the resulting reaction solution was measured. Concurrently, measurement was made of the absorbance [designated as value (b)] at 405 nm of the reaction solution as obtained in the control test where the enzymatic reaction was conducted without addition of the test compound. Further, measurements were made of the absorbance [designated as values (a′)] and the absorbance [[designated as values (b′)] at 405 nm of the solutions as obtained in the blank test and the control test, respectively, where the enzymatic reaction was not conducted in the assay test. The rate of inhibition to […] was calculated by the equation: [1-(a-a′)/(b-b′)]×100.
The test results obtained are summarized as IC50 value in Table 1 below.
This Test Example is a test example for determining the α-galactosidase or β-galactosidase-inhibitory activity of the compound of the formula (I), (V) or (X) according to this invention.
The evaluation of the α-galactosidase or β-galactosidase-inhibitory activity was conducted according to a modification of the method described in the “Journal of Biological Chemistry”, 240, p.2468 (1965).
Namely, the test was conducted in the same manner as the test for the enzyme-inhibitory activity described in Test Example 1, but with using α-galactosidase or β-galactosidase (products of by Sigma Company) originated from Aspergillus niger, as the glycosidase enzyme, and with using p-nitrophenyl-α-D-galactoside and p-nitrophenyl-β-D-galactoside as the substrate. Furthermore, absorbances of light at 405 nm were measured in the same manner as in Test Example 1. IC50 values of the test compound capable of giving the 50% inhibition to the enzymes were calculated.

Molecules are shown by their SMILES. Some results are limits rather than exact numbers.

On to `O=C(N[C@H]1NC[C@H](CO)[C@H](O)[C@@H]1O)C(F)(F)F` [Formula (I), 6-deacetamido-3-decarboxy-3-hydroxymethyl-6-trifluoroacetamido-siastain B], for which the “50% inhibiory concentration (IC50) Enzyme C” value (“50% inhibiory concentration” for short) is 0.1 µg/mL. Also, where the note is “summary of Table 1”, the “inhibition of α-D-galactosidase, in words” value was “inhibit strongly”.
For the compound `CC(=O)NC1NCC(CO)C(O)C1O` (stereo not drawn) [Formula (V), 3-decarboxy-4-epi-3-hydroxymethyl-siastain B], the “50% inhibiory concentration” value is over 100 µg/mL.
As for `O=C(N[C@H]1NC[C@H](CO)[C@@H](O)[C@@H]1O)C(F)(F)F` [Formula (X), 6-deacetamido-3-decarboxy-4-epi-3-hydroxymethyl-6-trifluoroacetamido-siastain B], the “50% inhibiory concentration” value was over 100 µg/mL.
